Counter-ions that a name gives are not always drawn.
| Structure (SMILES) | melting point |
| --- | --- |
| NC(=O)c1ccc(F)c2c1OCC(N(CCCc1c[nH]c3c(F)cc(F)cc13)CC1CC1)C2 (stereo not shown) (as salt: hydrochloride) [Compound 130, 3-{(cyclopropylmethyl)[3-(5,7-difluoro-1H-indol-3-yl)propyl]amino}-5-fluorochromane-8-carboxamide] | 124 °C (dec.) |
| NC(=O)c1ccc(F)c2c1OCC(N(CCCc1c[nH]c3c(F)cc(F)cc13)C1CCC1)C2 (stereo not shown) (as salt: hydrochloride) [Compound 131, 3-{cyclobutyl[3-(5,7-difluoro-1H-indol-3-yl)propyl]amino}-5-fluorochromane-8-carboxamide] | 136 °C (dec.) |
| CCN(CCCc1c[nH]c2c(F)cc(F)cc12)C1COc2c(C(N)=O)ccc(F)c2C1 (stereo not shown) (as salt: hydrochloride) [Compound 132, 3-[[3-(5,7-difluoro-1H-indol-3-yl)propyl](ethyl)amino]-5-fluorochromane-8-carboxamide] | 125 °C (dec.) |
| NC(=O)c1ccc(F)c2c1C[C@@H](N(CCCc1c[nH]c3c(F)cc(F)cc13)CC1CC1)CO2 (as salt: hydrochloride) [Compound 147, (3R)-3-{(cyclopropylmethyl)[3-(5,7-difluoro-1H-indol-3-yl)propyl]amino}-8-fluorochromane-5-carboxamide] | 147 to 151 °C |
| CCN(CCc1coc2c(OC)cccc12)C1COc2c(F)ccc(C(N)=O)c2C1 (stereo not shown) (as salt: hydrochloride) [Compound 157, 3-{ethyl[2-(7-methoxy-1-benzofuran-3-yl)ethyl]amino}-8-fluorochromane-5-carboxamide] | 124 to 132 °C |
| CCCN(CCc1coc2c(OC)cccc12)C1COc2c(F)ccc(C(N)=O)c2C1 (stereo not shown) (as salt: hydrochloride) [Compound 158, 8-fluoro-3-[[2-(7-methoxy-1-benzofuran-3-yl)ethyl](propyl)amino]chromane-5-carboxamide] | 125 to 132 °C |
| COc1cccc2c(CCN(C3CCC3)C3COc4c(F)ccc(C(N)=O)c4C3)coc12 (stereo not shown) (as salt: hydrochloride) [Compound 159, 3-{cyclobutyl[2-(7-methoxy-1-benzofuran-3-yl)ethyl]amino}-8-fluorochromane-5-carboxamide] | 135 to 145 °C (dec.) |
| COc1cccc2c(CCN(CC3CC3)C3COc4c(F)ccc(C(N)=O)c4C3)coc12 (stereo not shown) (as salt: hydrochloride) [Compound 160, 3-{(cyclopropylmethyl)[2-(7-methoxy-1-benzofuran-3-yl)ethyl]amino}-8-fluorochromane-5-carboxamide] | 130 to 138 °C (dec.) |
| CCN(CCCc1coc2c(OC)cccc12)C1COc2c(F)ccc(C(N)=O)c2C1 (stereo not shown) (as salt: hydrochloride) [Compound 162, 3-{ethyl[3-(7-methoxy-1-benzofuran-3-yl)propyl]amino}-8-fluorochromane-5-carboxamide] | 125 to 128 °C |
| CCCN(CCCc1coc2c(OC)cccc12)C1COc2c(F)ccc(C(N)=O)c2C1 (stereo not shown) (as salt: hydrochloride) [Compound 163, 8-fluoro-3-[[3-(7-methoxy-1-benzofuran-3-yl)propyl](propyl)amino]chromane-5-carboxamide] | 123 to 129 °C |
| COc1cccc2c(CCCN(C3CCC3)C3COc4c(F)ccc(C(N)=O)c4C3)coc12 (stereo not shown) (as salt: hydrochloride) [Compound 164, 3-{cyclobutyl[3-(7-methoxy-1-benzofuran-3-yl)propyl]amino}-8-fluorochromane-5-carboxamide] | 131 to 140 °C (dec.) |
| COc1cccc2c(CCCN(CC3CC3)C3COc4c(F)ccc(C(N)=O)c4C3)coc12 (stereo not shown) (as salt: hydrochloride) [Compound 165, 3-{(cyclopropylmethyl)[3-(7-methoxy-1-benzofuran-3-yl)propyl]amino}-8-fluorochromane-5-carboxamide] | 125 to 132 °C |
| CCCCN(CCCc1coc2c(OC)cccc12)C1COc2c(F)ccc(C(N)=O)c2C1 (stereo not shown) (as salt: hydrochloride) [Compound 166, 3-{butyl[3-(7-methoxy-1-benzofuran-3-yl)propyl]amino}-8-fluorochromane-5-carboxamide] | 110 to 117 °C (dec.) |
| CCN(CCCCc1coc2c(OC)cccc12)C1COc2c(F)ccc(C(N)=O)c2C1 (stereo not shown) (as salt: hydrochloride) [Compound 168, 3-{ethyl[4-(7-methoxy-1-benzofuran-3-yl)butyl]amino}-8-fluorochromane-5-carboxamide] | 112 to 118 °C |
| CCCN(CCCCc1coc2c(OC)cccc12)C1COc2c(F)ccc(C(N)=O)c2C1 (stereo not shown) (as salt: hydrochloride) [Compound 169, 8-fluoro-3-[[4-(7-methoxy-1-benzofuran-3-yl)butyl](propyl)amino]chromane-5-carboxamide] | 99 to 110 °C (dec.) |
| COc1cccc2c(CCCCN(CC3CC3)C3COc4c(F)ccc(C(N)=O)c4C3)coc12 (stereo not shown) (as salt: hydrochloride) [Compound 170, 3-{(cyclopropylmethyl)[4-(7-methoxy-1-benzofuran-3-yl)butyl]amino}-8-fluorochromane-5-carboxamide] | 114 to 120 °C |
| COc1cccc2c(CCCCN(C3CCC3)C3COc4c(F)ccc(C(N)=O)c4C3)coc12 (stereo not shown) (as salt: hydrochloride) [Compound 171, 3-{cyclobutyl[4-(7-methoxy-1-benzofuran-3-yl)butyl]amino}-8-fluorochromane-5-carboxamide] | 122 to 127 °C (dec.) |
| CCCN(CCCCc1coc2c(OC)cccc12)[C@H]1COc2c(F)ccc(C(N)=O)c2C1 (as salt: hydrochloride) [Compound 172, (3R)-8-fluoro-3-[[4-(7-methoxy-1-benzofuran-3-yl)butyl](propyl)amino]chromane-5-carboxamide] | 103 to 111 °C |
| NC(=O)c1ccc(F)c2c1CC(NCCCn1ccc3ccccc31)CO2 (stereo not shown) (as salt: hydrochloride) [Compound 184, 8-Fluoro-3-{[3-(1H-indol-1-yl)propyl]amino}chromane-5-carboxamide] | 155 to 156 °C |
| NC(=O)c1ccc(F)c2c1CC(NCCCCn1ccc3cccc(F)c31)CO2 (stereo not shown) (as salt: hydrochloride) [Compound 188, 8-Fluoro-3-{[4-(7-fluoro-1H-indol-1-yl)butyl]amino}chromane-5-carboxamide] | 166 to 168 °C |
| CCCN(C1COc2cccc(OC)c2C1)[C@H]1CC[C@@H](c2c[nH]c3ccc(F)cc32)CC1 (relative stereo) (as salt: hydrochloride) [Compound 182, cis-N-[4-(5-fluoro-1H-indol-3-yl)cyclohexyl]-5-methoxy-N-propylchroman-3-amine] | 148 °C (dec.) |
| CCCN(C1COc2cccc(OC)c2C1)[C@H]1CC[C@H](c2c[nH]c3ccc(F)cc32)CC1 (relative stereo) (as salt: hydrochloride) [Compound 183, trans-N-[4-(5-fluoro-1H-indol-3-yl)cyclohexyl]-5-methoxy-N-propylchroman-3-amine] | 159 °C (dec.) |
| NC(=O)c1ccc(F)c2c1CC(NCCCc1c[nH]c3ccc(F)cc13)CO2 (single isomer, unassigned; (+)) (as salt: hydrochloride) [Compound 1a, (+)-8-fluoro-3-{[3-(5-fluoro-1H-indol-3-yl)propyl]amino}chromane-5-carboxamide] | 89 °C (dec.) |

Now from value to compound:

| melting point | Structure (SMILES) |
| --- | --- |
| 125 °C (dec.) | CNC(=O)c1ccc(F)c2c1C[C@H](N(CCCCc1c[nH]c3ccc(F)cc13)C1CCC1)CO2 (as salt: hydrochloride) [Compound 145a, (3S)-3-{cyclobutyl[4-(5-fluoro-1H-indol-3-yl)butyl]amino}-8-fluoro-N-methylchromane-5-carboxamide] |
| 125 °C (dec.) | CNC(=O)c1ccc(F)c2c1C[C@@H](N(CCCCc1c[nH]c3ccc(F)cc13)C1CCC1)CO2 (as salt: hydrochloride) [Compound 145b, (3R)-3-{cyclobutyl[4-(5-fluoro-1H-indol-3-yl)butyl]amino}-8-fluoro-N-methylchromane-5-carboxamide] |
| 168 to 174 °C (dec.) | C[C@H](CCN(C1CCC1)[C@H]1COc2c(F)ccc(C(N)=O)c2C1)c1c[nH]c2ccc(F)cc12 (as salt: hydrochloride) [Compound 152a, (3R)-3-{cyclobutyl[(3R)-3-(5-fluoro-1H-indol-3-yl)butyl]amino}-8-fluorochromane-5-carboxamide] |
| 160 to 168 °C (dec.) | C[C@@H](CCN(C1CCC1)[C@H]1COc2c(F)ccc(C(N)=O)c2C1)c1c[nH]c2ccc(F)cc12 (as salt: hydrochloride) [Compound 153a, (3R)-3-{cyclobutyl[(3S)-3-(5-fluoro-1H-indol-3-yl)butyl]amino}-8-fluorochromane-5-carboxamide] |
| 162 to 168 °C | C[C@@H](CCN(C1CCC1)[C@@H]1COc2c(F)ccc(C(N)=O)c2C1)c1c[nH]c2ccc(F)cc12 (as salt: hydrochloride) [Compound 153b, (3S)-3-{cyclobutyl[(3S)-3-(5-fluoro-1H-indol-3-yl)butyl]amino}-8-fluorochromane-5-carboxamide] |
| 156.5 °C (dec.) | COc1cccc2c1CC(N[C@H]1CC[C@@H](c3c[nH]c4ccc(F)cc43)CC1)CO2 (relative stereo) (as salt: hydrochloride) [Compound 181a, cis-N-[4-(5-fluoro-1H-indol-3-yl)cyclohexyl]-5-methoxychroman-3-amine] |
| 265 °C (dec.) | COc1cccc2c1CC(N[C@H]1CC[C@H](c3c[nH]c4ccc(F)cc43)CC1)CO2 (relative stereo) (as salt: hydrochloride) [Compound 181b, trans-N-[4-(5-fluoro-1H-indol-3-yl)cyclohexyl]-5-methoxychroman-3-amine] |
| 160 to 165 °C | CC(CCc1c[nH]c2c(F)cc(F)cc12)N(CC1CC1)C1COc2c(F)ccc(C(N)=O)c2C1 (single isomer, unassigned) (as salt: HCl) [Compound 154a, 3-{(cyclopropylmethyl)[3-(5,7-difluoro-1H-indol-3-yl)-1-methylpropyl]amino}-8-fluorochromane-5-carboxamide] |

— patent US20050032873A1, “3-Amino chroman and 2-amino tetralin derivatives” (Wyeth, priority 2003, published 2005)
